Converted amounts (≈) assume the structure as drawn.
Columns and labels:
[1] = system: fluconazole susceptible and resistant C. albicans strains; assay: Broth microdilution antifungal susceptibility, ranges over strains; type: cell-based; settings: Candida albicans; over the tested C. albicans strains
Experimental: In this study, 10 clinical Candida albicans isolates, comprising of 5 fluconazole susceptible and 5 fluconazole resistant, were used. C. albicans SC5314 was also used as a control laboratory strain. Clinical strains used in this study were stored at −80 °C supplemented with 20% glycerol in the Department of Clinical Microbiology and Infectious Diseases, University of the Witwatersrand, Johannesburg and were previously collected under the ethical clearance number M000402, obtained from the Human Research Ethics Committee, University of the Witwatersrand. For experimental purpose each strain from glycerol stock was recovered on Sabouraud Dextrose (SDA) agar plates at 37 °C for 24 h.
Minimum Inhibitory Concentration (MIC) and Minimum Fungicidal Concentrations (MFC) of all newly synthesized eugenol-tosylate congeners (ETC-1–ETC-7) against C. albicans strains were determined by broth microdilution assay in accordance with the approved guidelines described by Clinical and Laboratory Standards Institute (CLSI) guidelines M27-A[38]. The test compounds were prepared in 1% DMSO to a stock concentration of 8192 µg/ml. Two-fold dilutions of test compounds (100 µL) were prepared in 96-well flat-bottom microtiter plates, inoculated with 100 µl of inoculum (1 × 10^6 cells/mL) and incubated at 37 °C for 24 hours. In every set of experiment, positive control (fluconazole), negative vehicle control (1% DMSO) and culture control (media and cells only) were included. MIC’s were determined visibly as the lowest concentration of the test compounds that inhibited growth of test organism. To determine MFC, each well without visible growth was sub-cultured onto agar plates. Concentration in the first well with no growth on plate was taken as MFC. […] The experiment was performed in triplicate to validate the results.

[2] = system: C. albicans 4175, C. albicans 5112 and C. albicans SC5314; assay: FITC annexin V/PI staining flow cytometry, ranges over three strains; type: cell-based, Candida albicans; settings: range over 0.5 × MIC, 1 × MIC, 2 × MIC and three strains
Experimental: To study the effect of test compounds on apoptotic markers protoplasts were prepared as described previously, with modifications. Briefly, mid-exponential phase cells were harvested and exposed to various concentrations of test compounds (0.5 × MIC, 1 × MIC and 2×MIC) for 3 h. The cells were then washed twice with protoplast buffer- I (1 M sorbitol, 50 mM tris base, 10 mM MgCl2 and 30 mM DTT) and incubated in the same buffer for 15 minutes at 25 °C, followed by centrifugation at 1500 rpm for 5 minutes. Supernatant was removed and cells were incubated with buffer- II (1 M sorbitol, 50 mM tris base, 10 mM MgCl2 and 1 mM DTT) supplemented with lyticase enzyme (≥1 µg/mL) used to digest the cell wall for 1 h at 25 °C. Buffer- II were removed by centrifugation and then cells were incubated with buffer- III (1 M sorbitol, 50 mM tris base and 10 mM MgCl2) for 20 minutes at room temperature. After the incubation cells were again centrifuged at 1500 rpm for 5 minutes and supernatant was discarded. Protoplasts then finally washed once with PBS and re-suspended in the same for further use. In each washing steps the volume of these protoplast buffers were 5 times to cell volume with pH 7.4.
This assay was used to identify early apoptosis by detecting movement of phosphatidylserine (PS) from the inner to the outer leaflet of plasma membrane. FITC annexin V Apoptosis Detection Kit I (BD Biosciences, CA, USA) was used according to the manufacturer’s instructions. Protoplasts of C. albicans cells treated with different concentrations of the test compounds, as mentioned in above section, were resuspended in 1X annexin V binding buffer ([…]) at a concentration of 1 × 10^6 cells per ml. To the 100 µl of this solution, 5 µl each of FITC annexin V and propidium iodide (PI) was added. Tubes were gently vortexed and incubated for 15 minutes at 25 °C in the dark. After incubation, 400 µl of 1X annexin V binding buffer was added to each tube and analyzed using the BD LSRFortessa Flow cytometer (Becton Dickinson, NJ, USA). The cell populations in four different quadrants of a quadrant dot plot were analyzed and interpreted as; Q1: necrosis (annexin V^−/PI^+), Q2: late apoptosis (annexin V^+/PI^+), Q3: early apoptosis (annexin V^+/PI^−) and Q4: viable cells (annexin V^−/PI^−), by using software FlowJo_V10.

[3] = system: horse red blood cells; assay: Cytotoxicity by haemolytic assay; type: cell-based; settings: 2 × MIC, 60 minutes at 37 °C, horse RBCs
Experimental: The cytotoxicity of the test compounds was determined on horse red blood cells (NHLS, Johannesburg, South Africa) by testing the haemolytic activity of these compounds using the method described previously, with some modifications. Briefly, in a sterile 15 ml falcon tube 5 ml of horse blood was centrifuged at 2000 × rpm for 10 minutes. The supernatant was discarded, and the cell pellet was washed three times with chilled PBS solution. The final pellet was used to yield a 10% RBC suspension with chilled PBS. The 10% suspension were further diluted to 1:10 in PBS, then 100 µl of this suspension was added to different concentration of test compounds (0.5 × MIC, 1 × MIC and 2 × MIC) in 1.5 ml tubes. The tubes were then incubated for 60 minutes at 37 °C followed by centrifugation at 2000 × rpm for 10 minutes. From each tube, 200 µl of the supernatant was transferred to a flat-bottomed 96-well microtiter plate and absorbance was monitored at 450 nm spectrophotometrically with an iMark microplate reader (Bio-Rad laboratories, CA, USA). Triton X-100 (1%) and PBS were used as positive and negative controls respectively. The percentage of haemolysis was calculated by the following equation: %haemolysis=A450oftestcompoundtreatedsample−A450ofbuffertreatedsample/A450of1%TritonX−100treatedsample−A450ofbuffertreatedsample×100%

With `C=CCc1ccc(OS(=O)(=O)c2ccc(C(=O)O)cc2)c(OC)c1` [ETC-7, 4-{[2-methoxy-4-(prop-2-en-1-yl)phenoxy]sulfonyl}benzoic acid] as the compound, how does the MFC [1] read?
Its MFC is 2 to 8 µg/mL (≈ 5.74 to 23 µM).

And the MIC [1]?
Its MIC is 1 to 4 µg/mL (≈ 2.87 to 11.5 µM).

And the early apoptosis [2]?
The early apoptosis was 8–32%.

What about the late apoptosis [2] of the same compound?
Its late apoptosis is 2–26%.

What about the necrosis [2] of the same compound?
Its necrosis is 1–31%.

What about the haemolytic activity [3] of the same compound?
Its haemolytic activity is 8.91%.

— article PMC6985109, “Cellular apoptosis and necrosis as therapeutic targets for novel Eugenol Tosylate Congeners against Candida albicans” (Scientific Reports, 2020)
